Measurements from US11744808B2, “Compositions and methods for treating non-alcoholic steatohepatitis” (ALGERNON PHARMACEUTICALS INC., priority 2018, dated 2023).

Legend:
[1] = tested on: murine STAM™ model of NASH-HCC; assay: Murine STAM model of NASH-HCC, first study (Example 1): H&E NAFLD activity scoring and Sirius red fibrosis area; type: in vivo, C57BL/6 mice; settings: for hepatocellular ballooning score relative to Vehicle control / NAFLD activity score relative to Vehicle control / fibrosis area (Sirius red-positive area) compared with the Vehicle group: once daily oral, 6 to 9 weeks of age, Bromantane 20 mg/kg, Istradefylline 18 mg/kg; for hepatocellular ballooning score relative to Vehicle control: Irsogladine 1 mg/kg; for NAFLD activity score relative to Vehicle control / fibrosis area (Sirius red-positive area) compared with the Vehicle group: Telmisartan 10 mg/kg
Method: Male newborn C57BL/6 mice were used. All mice were born from pathogen-free 14 day-pregnant mice obtained from Japan SLC, Inc. (Hamamatsu, Japan) prior to the start of the study.
(§1) The murine STAM™ model of NASH-HCC was performed according to previously described methods known in the art (Takakura et al, Characterization of non-alcoholic steatohepatitis, Anticancer Res, 34(9):4849-55 (2014); Fujii et al, (2013)). NASH was induced in male mice by a single subcutaneous injection of 200 μg of streptozotocin (STZ, Sigma, Mo., USA) at 2 days after birth and continuous feeding after 4 weeks of age (day 28±2) with a high fat diet (CLEA Japan Inc, Tokyo, Japan) given ad libitum.
Following induction of NASH, the mice were randomized into 12 individual study groups of 8 mice each at 6 weeks of age (day 42±2) based on body weight, the day before the start of treatment.
One day following randomization, the mice were administered a once-daily oral treatment from 6 weeks of age plus one day (day 43±2, treatment Day 1) to 9 weeks of age (hereinafter known as the “treatment period”). The mice in 11 of the 12 study groups (hereafter known as “treatment groups”) were treated individually with a distinct pharmacologic compound formulated with a pharmaceutically acceptable vehicle. […] The pharmaceutically acceptable vehicle in all groups was 0.5% carboxymethyl cellulose (CMC). […] Individual body weight was measured daily during the treatment period. Survival, clinical signs and behavior of mice were also monitored daily.
In each case, a volume of 10 mL/kg of 0.5% CMC was administered orally with (or without) the active ingredient as noted in Table 1 from 6 to 9 weeks of age until sacrifice. One exception being Trapadil, which was administered orally with one dosing of 120 mg/kg on Day 0 and then at the daily dose of 60 mg/kg starting on treatment Day 1. All mice were then sacrificed at 9 weeks of age. Blood samples were collected from all mice and the liver from each mouse was removed for analysis.
(§2) Assessment of Steatohepatitis: Liver cross-sections were subjected to hematoxylin and eosin (H&E) staining using standard techniques for histological assessment of hepatic steatosis, lobular inflammation and hepatocellular ballooning. The level of steatohepatitis severity in each liver cross-section was indicated by NAFLD Activity Scores of: 0 (normal), 1-2 (NAFLD), 3-4 (borderline) or at least 5 (NASH) in 3 randomly selected fields of H&E-stained liver cross-sections of 4 μm thickness at ×50 magnification for evaluation of steatosis and ×200 magnification each for evaluation of inflammation and evaluation of ballooning. The NAFLD Activity Score is the unweighted sum of the following: 1) hepatic steatosis score (0-3); 2) lobular inflammation score ([…]); 3) hepatocellular ballooning score (0-2).
For quantitative analysis of fibrosis area, bright field images of Sirius red-stained sections were captured around the central vein using a digital camera (DFC295; Leica, Germany) at 200-fold magnification, and the positive areas in 5 fields/section were measured using ImageJ software (National Institute of Health, USA).
(§3) Values are arithmetic means. Comparison between the study group and positive control group was performed using a two-tailed, heteroscedastic (two-sample unequal variance) Student's T-Test. A P-value of <0.05 was considered statistically significant following a Bonferroni post-hoc statistical correction analysis for multiple groups (Bonferroni Multiple Comparison Test). In this case, the correction factor was 12, corresponding to the number of study groups. Following the usual convention, the P-value classification and statistical significance levels chosen are shown in Table 2 alongside their corresponding classification scores.

[2] = tested on: murine STAM™ model of NASH-HCC; assay: Murine STAM model of NASH-HCC, second study (Example 2): H&E NAFLD activity scoring and Sirius red fibrosis area; type: in vivo, C57BL/6 mice; settings: for NAFLD Activity Scores, hepatic steatosis, lobular inflammation and hepatocellular ballooning (conclusion): Bromantane at 40 mg/kg, Cenicriviroc at 30 mg/kg
Method: As before, male newborn C57BL/6 mice were used. All mice were born from pathogen-free 14 day-pregnant mice obtained from Japan SLC, Inc. (Hamamatsu, Japan) prior to the start of the study.
as §1
Following induction of NASH, the mice were randomized into 7 individual study groups of 8 mice each at 6 weeks of age (day 42±2) based on their body weight, the day before the start of treatment.
One day following randomization, the mice were administered a once-daily oral treatment from 6 weeks of age plus one day (day 43±2, treatment Day 1) to 9 weeks of age. The mice in 6 of the 7 study groups were treated individually with a therapeutic amount of a pharmacologic compound formulated with a pharmaceutically acceptable vehicle. […] The pharmaceutically acceptable vehicle in all groups was 0.5% CMC. […] Individual body weight was measured daily during the treatment period. Survival, clinical signs and behavior of mice were also monitored daily.
In each case, a volume of 10 mL/kg of 0.5% CMC was administered orally with (or without) the active ingredient as noted in Table 3 from 6 to 9 weeks of age. All mice were then sacrificed at 9 weeks of age. Blood samples were collected from all mice and the liver from each mouse was removed for analysis.
as §2
The liver cross-sections of the treated groups were also subjected to Sirius-red staining using standard techniques for histological estimation of the percentage of fibrosis area. For quantitative analysis of fibrosis area, bright field images of Sirius red-stained sections were captured around the central vein using a digital camera (DFC295; Leica, Germany) at 200-fold magnification, and the positive areas in 5 fields/section were measured using ImageJ software (National Institute of Health, USA).
as §3, with “7,” for “12,”, “2 (above)” for “2”

[3] = once daily oral, 6 to 9 weeks of age, Bromantane high 40 mg/kg, Bemithyl 200 mg/kg, Cenicriviroc 30 mg/kg, Telmisartan 10 mg/kg
[4] = once daily oral, 6 to 9 weeks of age, Bromantane high 40 mg/kg, Cenicriviroc 30 mg/kg, Bemithyl 200 mg/kg, Telmisartan 10 mg/kg

SMILES | NAFLD Activity Scores, hepatic steatosis, lobular inflammation and hepatocellular ballooning (conclusion) ([1]; Istradefylline at 18 mg/kg, Telmisartan at 10 mg/kg oral, compared to the Vehicle group) | hepatocellular ballooning score relative to Vehicle control [1] | NAFLD activity score relative to Vehicle control [1] | fibrosis area (Sirius red-positive area) compared with the Vehicle group [1] | NAFLD Activity Scores, hepatic steatosis, lobular inflammation and hepatocellular ballooning (conclusion) [2] | fibrosis area (Sirius red-positive area) compared with the Vehicle group [2, 3] | NAFLD activity score relative to Vehicle control [2, 4] | steatosis score relative to Vehicle control ([2]; once daily oral, 6 to 9 weeks of age, Bromantane high 40 mg/kg, Telmisartan 10 mg/kg) | fibrosis area (Sirius red-positive area) compared with the Vehicle group ([2]; once daily oral, 6 to 9 weeks of age, Bromantane low 20 mg/kg)
CCn1c(=O)c2c(nc(/C=C/c3ccc(OC)c(OC)c3)n2C)n(CC)c1=O [Istradefylline, 8-[(E)-2-(3,4-dimethoxyphenyl)vinyl]-1,3-diethyl-7-methyl-3,7-dihydro-1H-purine-2,6-dione] | showed improvement | Statistically significant reductions | Statistically significant reductions | significant decreases |  |  |  |  | 
Nc1nc(N)nc(-c2cc(Cl)ccc2Cl)n1 [Irsogladine, 6-(2,5-Dichlorophenyl)-1,3,5-triazine-2,4-diamine] |  | Statistically significant reductions |  |  |  |  |  |  | 
CCCCOCCOc1ccc(-c2ccc3c(c2)/C=C(/C(=O)Nc2ccc([S@@+]([O-])Cc4cncn4CCC)cc2)CCCN3CC(C)C)cc1 [Cenicriviroc] |  |  |  |  | showed improvement | statistically significant decreases | Statistically significant reductions |  | 
Brc1ccc(NC2C3CC4CC(C3)CC2C4)cc1 (stereo not drawn) [Bromantane, N-(4-Bromophenyl)adamantan-2-amine] |  | Statistically significant reductions | Statistically significant reductions | significant decreases | showed improvement | statistically significant decreases | Statistically significant reductions | Statistically significant reductions | statistically significant decreases
CCSc1nc2ccccc2[nH]1 [Bemithyl, 2-Ethylsulfanyl-1H-benzoimidazole] |  |  |  |  |  | particularly statistically significant decrease | statistically significant and clinically relevant composite reduction |  | 
